# Tested on: 485176-168-R4-J1-PDC spheroids with HUVEC/MSC, viability
# Experiment: Anticancer human tumor 485176-168-R4-J1-PDC patient-derived pancreatic adenocarcinoma cell line growth inhibition [GQUAD]
# Settings: for IC50: curve of first compound; for viability, T/C: stronger effect = lower value
# Procedure, shortened: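 Viability of tumor cells grown as complex spheroids with endothelial and stromal cells, exposed to drug combinations. Top concentration at or near clinical Cmax (else 10 microM), diluted in half-log increments.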
# [1] = second compound 0.0316 µM, first compound 0.0316 µM
# [2] = second compound 0.0316 µM, first compound 0.1 µM
# [3] = second compound 0.0316 µM, first compound 0.316 µM
# [4] = second compound 0.0316 µM, first compound 1 µM
# [5] = second compound 0.0316 µM, first compound 3.16 µM
# [6] = second compound 0.0316 µM, first compound 10 µM
# [7] = second compound 0.1 µM, first compound 0.0316 µM
# [8] = second compound 0.1 µM, first compound 0.1 µM
# [9] = second compound 0.1 µM, first compound 0.316 µM
# [10] = second compound 0.1 µM, first compound 1 µM
# [11] = second compound 0.1 µM, first compound 3.16 µM
# [12] = second compound 0.1 µM, first compound 10 µM
# [13] = second compound 0.316 µM, first compound 0.0316 µM
# [14] = second compound 0.316 µM, first compound 0.1 µM
# [15] = second compound 0.316 µM, first compound 0.316 µM
# [16] = second compound 0.316 µM, first compound 1 µM
# [17] = second compound 0.316 µM, first compound 3.16 µM
# [18] = second compound 0.316 µM, first compound 10 µM
# [19] = second compound 1 µM, first compound 0.0316 µM
# [20] = second compound 1 µM, first compound 0.1 µM
# [21] = second compound 1 µM, first compound 0.316 µM
# [22] = second compound 1 µM, first compound 1 µM
# [23] = second compound 1 µM, first compound 3.16 µM
# [24] = second compound 1 µM, first compound 10 µM
# [25] = second compound 3.16 µM, first compound 0.0316 µM
# [26] = second compound 3.16 µM, first compound 0.1 µM
# [27] = second compound 3.16 µM, first compound 0.316 µM
# [28] = second compound 3.16 µM, first compound 1 µM
# [29] = second compound 3.16 µM, first compound 3.16 µM
# [30] = second compound 3.16 µM, first compound 10 µM
# [31] = second compound 10 µM, first compound 0.0316 µM
# [32] = second compound 10 µM, first compound 0.1 µM
# [33] = second compound 10 µM, first compound 0.316 µM
# [34] = second compound 10 µM, first compound 1 µM
# [35] = second compound 10 µM, first compound 3.16 µM
# [36] = second compound 10 µM, first compound 10 µM
# 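Also: spheroids exposed to compounds for seven days before readout.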
# 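For viability, T/C in this document: percent viability relative to DMSO vehicle control wells as 100%.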
structure (smiles),measurement,setting,value
COc1ncnc(C2CC2)c1-c1ncc2cnn(Cc3ccc(-c4nc(C(F)(F)F)cn4C(C)C)cc3)c2n1 + Cc1[nH]c2ccc(F)cc2c1-c1nc2c3cccnc3c3ncccc3c2[nH]1,IC50,second compound 0.0316 µM,> 10 µM
same,IC50,second compound 0.1 µM,> 10 µM
same,IC50,second compound 0.316 µM,> 10 µM
same,IC50,second compound 1 µM,> 10 µM
same,IC50,second compound 3.16 µM,> 10 µM
same,IC50,second compound 10 µM,> 10 µM
same,"viability, T/C",[1],118%
same,"viability, T/C",[2],81.8%
same,"viability, T/C",[3],101%
same,"viability, T/C",[4],105%
same,"viability, T/C",[5],104%
same,"viability, T/C",[6],94.2%
same,"viability, T/C",[7],101%
same,"viability, T/C",[8],106%
same,"viability, T/C",[9],102%
same,"viability, T/C",[10],102%
same,"viability, T/C",[11],102%
same,"viability, T/C",[12],110%
same,"viability, T/C",[13],91%
same,"viability, T/C",[14],85.4%
same,"viability, T/C",[15],107%
same,"viability, T/C",[16],92.4%
same,"viability, T/C",[17],110%
same,"viability, T/C",[18],110%
same,"viability, T/C",[19],84.9%
same,"viability, T/C",[20],106%
same,"viability, T/C",[21],118%
same,"viability, T/C",[22],108%
same,"viability, T/C",[23],115%
same,"viability, T/C",[24],97%
same,"viability, T/C",[25],88.4%
same,"viability, T/C",[26],90.7%
same,"viability, T/C",[27],104%
same,"viability, T/C",[28],93.8%
same,"viability, T/C",[29],93%
same,"viability, T/C",[30],80.5%
same,"viability, T/C",[31],90.3%
same,"viability, T/C",[32],97%
same,"viability, T/C",[33],83.5%
same,"viability, T/C",[34],90.9%
same,"viability, T/C",[35],96.9%
same,"viability, T/C",[36],84.6%
CC1COCCN1c1cc(C2(O)CC3CCC(C2)O3)c2cnn(-c3ccn[nH]3)c2n1 (centres undefined) + Cc1cnc(CNC(=O)c2c(=O)c3ccc(N4CCCN(C)CC4)nc3n3c2sc2ccccc23)cn1,IC50,second compound 0.0316 µM,< 0.0316 µM
same,IC50,second compound 0.1 µM,< 0.0316 µM
same,IC50,second compound 0.316 µM,< 0.0316 µM
same,IC50,second compound 1 µM,< 0.0316 µM
same,IC50,second compound 3.16 µM,< 0.0316 µM
same,IC50,second compound 10 µM,< 0.0316 µM
same,"viability, T/C",[1],48.9%
same,"viability, T/C",[2],17.3%
same,"viability, T/C",[3],11%
same,"viability, T/C",[4],8.41%
same,"viability, T/C",[5],10.1%
same,"viability, T/C",[6],8.06%
same,"viability, T/C",[7],22.6%
same,"viability, T/C",[8],14.5%
same,"viability, T/C",[9],9.1%
same,"viability, T/C",[10],9.8%
same,"viability, T/C",[11],11.5%
same,"viability, T/C",[12],8.77%
same,"viability, T/C",[13],15.5%
same,"viability, T/C",[14],11.7%
same,"viability, T/C",[15],10.3%
same,"viability, T/C",[16],9.55%
same,"viability, T/C",[17],10.9%
same,"viability, T/C",[18],9.41%
same,"viability, T/C",[19],13.8%
same,"viability, T/C",[20],12.3%
same,"viability, T/C",[21],9.3%
same,"viability, T/C",[22],7.89%
same,"viability, T/C",[23],9.58%
same,"viability, T/C",[24],7.69%
same,"viability, T/C",[25],17.7%
same,"viability, T/C",[26],11.3%
same,"viability, T/C",[27],10.5%
same,"viability, T/C",[28],9.3%
same,"viability, T/C",[29],8.86%
same,"viability, T/C",[30],8.53%
same,"viability, T/C",[31],13.8%
same,"viability, T/C",[32],11.2%
same,"viability, T/C",[33],10.2%
same,"viability, T/C",[34],9.98%
same,"viability, T/C",[35],9.05%
same,"viability, T/C",[36],7.21%
